Data from patent US9803450B2, “Use of oligo-quaternary compositions to increase scale inhibitor lifetime in a subterranean formation” (Ecolab USA Inc., priority 2012, dated 2017).

Columns and labels:
Fathead Minnow = experiment: Toxicity, LC50 Fathead Minnow; settings: in vivo
Protocol: Product A was evaluated for toxicity using various tests.

[1] = Compatibility test of scale inhibitors with Product A in synthetic brine; assay type: physicochemical; parameters: key: C—Clear; P—Precipitate; settings: 10% scale inhibitor solution mixed with 10% Product A solution in synthetic brine
Description: Individual solutions (Solutions 1B through 1G) of 10% Product B, C, D, E, F and G, respectively, in a synthetic brine (see the table below showing the synthetic brine composition) were mixed with a 10% solution (Solution 2) of Product A in the synthetic brine. The two sets of solutions were mixed with Solution 2 (i. e., each of Solutions 1B through 1G were mixed with Solution 2) at ratios of 10:90, 30:70, 50:50, 70:30 and 90:10 to indicate that no precipitate would form at any concentration in the mixing concentration range from 10:90 to 90:10. These compatibility screening tests indicate that it is unlikely for any incompatibility to be experienced during deployment and flow back of a squeeze treatment. Any incompatibilities under ambient conditions were observed visually from solution clarity and/or precipitate. The samples were then heated to the test temperature (80° C.) and any further incompatibilities after 2 and 24 hours recorded.

Coreflood = settings: flow back versus pre-treatment permeability
Protocol: Two corefloods were carried out simultaneously on two Bandera outcrop cores (1.5″ diameter by 3″ length), using a Scaled Solutions dual coreflood apparatus. The composition of these cores is set out in the table below:
Both cores were wrapped with PTFE tape and cased in heat shrink tubing prior to insertion into a Viton sleeve and mounted in a Hassler type core holder with a confining pressure of 1200 psi. Both cores were then flushed with synthetic brine at 1 mL/min for at least 2 hours and until the differential pressure was stable. Brine was flushed at 0.5 mL/min overnight.
Both cores were saturated with synthetic brine under ambient conditions in the forward direction at 1 mL/min for 10 minutes, 2 mL/min for 10 minutes, 3 mL/min for 10 minutes, and 4 mL/min for 2 hours and until the differential pressure was stable. After a stable differential pressure was achieved, the permeability to brine was measured in the forward flow by flooding at 4, 3, 2, 1 mL/min at room temperature.
Brine was then injected into both cores in the forward direction at 1 mL/min until the oven reached a temperature of 80° C. […] Following plug saturation, the permeability of each core to synthetic brine was measured in the forward flow by flooding at 4, 3, 2, and 1 mL/min at 80° C. […]
Both cores were injected with synthetic brine at 2 mL/min with effluent samples being collected. The samples were analyzed by ICP. […]

[2] = ratio printed 10:90 (fifth column)
[3] = ratio printed 30:70 (fourth column)

| Compound | LC50 Fathead Minnow (Fathead Minnow) | Clarity of Mixed Solutions ([1]; ratio 10:90 (first column)) | Clarity of Mixed Solutions ([1]; ratio 30:70 (second column)) | Clarity of Mixed Solutions ([1]; ratio 50:50) | Clarity of Mixed Solutions [1, 2] | Clarity of Mixed Solutions [1, 3] | Permeability Recovery (Coreflood) | Permeability Recovery (Coreflood; listed as Brine/10% Product B) |
| --- | --- | --- | --- | --- | --- | --- | --- | --- |
| C[N+](C)(C)CC(O)C[N+](C)(C)C.[Cl-].[Cl-] [Product A, 1,3-propandiaminium, 2-hydroxy-N,N,N,N′,N′,N′-hexamethyl-, dichloride] | >1,000 mg/L |  |  |  |  |  |  |  |
| O=P(O)(O)CN(CCCCCCN(CP(=O)(O)O)CP(=O)(O)O)CCCCCCN(CP(=O)(O)O)CP(=O)(O)O [Product B, BHMT phosphonate] |  | C | C | C | C | C | 75% | 75% |
| DETA phosphonate [Product C] |  | C | C | C | C | C |  |  |
